Columns and labels:
[1] = test system: AII-induced Pressor Response; assay: Inhibitory Effect of the Compound of the Present Invention on AII-induced Pressor Response; type: in vivo; conditions: A-II 100 ng/kg i.v., male Jcl:SD rats
From the text: Inhibitory Effect of the Compound of the Present Invention on AII-induced Pressor Response
Jcl:SD rats (9 week old, male) were used. On the previous day of the experiment, rats were applied with cannulation into the femoral artery and vein under anesthesia with pentobarbital Na. These animals were fasted but allowed to access freely to drinking water until the experiment was started. Just on the day of conducting the experiment, the artery cannula was connected with a blood-pressure transducer, and the average blood pressure was recorded by polygraph. Before administration of the drug, the pressor action due to intravenous administration of A-II (100 ng/kg) as the control was determined. The drugs were orally administered, then, at each point of the determination, A-II was administered intravenously, and the pressor action was similarly determined. By comparing the pressor action before and after administration of the drug, the percent inhibition by the drug was evaluated.

angiotensin II receptor = target: T1, angiotensin II receptor (Bos taurus, UniProt P25104); assay: Inhibitory Effect of Binding of Angiotensin-II to Angiotensin II Receptor (radioreceptor assay); conditions: 125I-angiotensin II, bovine adrenal cortex membrane, room temperature, one hour; for inhibition at 1 µM: 10^-6 M; for inhibition at 0.1 µM: 10^-7 M
T1 construct: An A-II receptor membrane fraction was prepared from bovine adrenal cortex; from tissue; host or cells: bovine adrenal cortex membrane fraction
T1 sequence (P25104 1-359): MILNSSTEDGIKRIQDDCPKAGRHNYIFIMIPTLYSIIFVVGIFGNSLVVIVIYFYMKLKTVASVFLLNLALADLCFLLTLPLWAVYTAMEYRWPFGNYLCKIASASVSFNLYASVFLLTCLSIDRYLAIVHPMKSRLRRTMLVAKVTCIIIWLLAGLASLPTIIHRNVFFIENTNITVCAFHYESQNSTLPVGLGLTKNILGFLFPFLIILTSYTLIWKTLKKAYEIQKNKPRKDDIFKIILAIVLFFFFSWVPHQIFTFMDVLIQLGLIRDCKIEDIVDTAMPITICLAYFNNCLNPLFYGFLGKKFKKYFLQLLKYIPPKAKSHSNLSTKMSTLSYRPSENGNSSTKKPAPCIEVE
Procedure: Inhibitory Effect of Binding of Angiotensin-II to Angiotensin II Receptor
An experiment of inhibition on the binding of angiotensin II (A-II) receptor was performed by modified the method of Douglas et al. [Endocrinology, 102, 685-696 (1978)]. An A-II receptor membrane fraction was prepared from bovine adrenal cortex.
The compound of the present invention (10^-6 M or 10^-7 M) and ^125 I-angiotensin II (^125 I-AII) (2.44 KBq/50 microliter) were added to the receptor membrane fraction, and the mixture was incubated at room temperature for one hour. The receptor-bound and free I-AII were separated through a filter (Whatman GF/B filter), and the radioactivity of ^125 I-AII bound to the receptor was determined.

Row | inhibition at 1 µM (angiotensin II receptor) | inhibition at 0.1 µM (angiotensin II receptor) | Compound | Pressor Response [p.o.] (percent inhibition of A-II pressor action) ([1]; 1 mg/kg p.o.) | Pressor Response [p.o.] (percent inhibition of A-II pressor action) ([1]; 0.3 mg/kg p.o.)
1 | 55% | 16% | CCCCN(Cc1ccc(-c2ccccc2-c2nc(=O)o[nH]2)cc1)c1ncccc1C(=O)O [Example 6, 2-[N-butyl-N-[2'-(2,5-dihydro-5-oxo-1,2,4-oxadiazol-3-yl)biphenyl-4-yl]methylamino]pyridine-3-carboxylic acid] | +++ (+++ ≥ 70%) | –
2 | 61% | 20% | CCCN(Cc1ccc(-c2ccccc2-c2nsc(=O)[nH]2)cc1)c1ncccc1C(=O)O [Example 4] | +++ (+++ ≥ 70%) | –
3 | 52% | 17% | CCCN(Cc1ccc(-c2ccccc2-c2noc(=O)[nH]2)cc1)c1ncccc1C(=O)O [Example 2] | +++ (+++ ≥ 70%) | +++ (+++ ≥ 70%)

Source: patent US5500427A, “Cyclic compounds and their use” (Takeda Chemical Industries, Ltd., priority 1992, dated 1996)
